Source: US9085576B2 (AMGEN INC., priority 2013, dated 2015)

Columns and labels:
[1] = biological target: Cathepsin D (Cat D) (Homo sapiens (Human), UniProt P07339); test: In vitro enzymatic Cathepsin D (Cat D) FRET assay; type: biochemical; details: read-out: CatD IC50
[2] = biological target: BACE (Homo sapiens (Human), UniProt P56817); test: In vitro BACE cell-based assay (Aβ40 in conditioned medium, sandwich ELISA)
[3] = biological target: Beta Secretase enzyme (BACE) (Homo sapiens (Human), UniProt P56817); test: In vitro enzymatic BACE FRET assay; type: biochemical; details: read-out: BACE1 Enzyme assay IC50
Chain of Beta Secretase enzyme (BACE) (P56817 46-501): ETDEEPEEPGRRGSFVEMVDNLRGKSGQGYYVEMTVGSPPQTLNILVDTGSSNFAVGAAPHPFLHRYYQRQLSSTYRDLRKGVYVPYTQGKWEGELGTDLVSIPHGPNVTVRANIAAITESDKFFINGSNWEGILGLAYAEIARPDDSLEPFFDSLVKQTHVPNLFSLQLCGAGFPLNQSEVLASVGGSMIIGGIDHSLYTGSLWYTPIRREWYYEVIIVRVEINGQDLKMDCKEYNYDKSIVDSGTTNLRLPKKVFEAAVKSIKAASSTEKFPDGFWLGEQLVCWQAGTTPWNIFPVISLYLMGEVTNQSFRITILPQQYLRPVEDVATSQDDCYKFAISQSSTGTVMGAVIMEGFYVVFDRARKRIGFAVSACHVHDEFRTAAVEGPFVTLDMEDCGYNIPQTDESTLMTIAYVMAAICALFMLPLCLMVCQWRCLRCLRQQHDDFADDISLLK

Chain of BACE (P56817 46-501, species assumed): as the sequence (P56817 46-501) above
Chain of Cathepsin D (Cat D) (P07339 65-412, species assumed): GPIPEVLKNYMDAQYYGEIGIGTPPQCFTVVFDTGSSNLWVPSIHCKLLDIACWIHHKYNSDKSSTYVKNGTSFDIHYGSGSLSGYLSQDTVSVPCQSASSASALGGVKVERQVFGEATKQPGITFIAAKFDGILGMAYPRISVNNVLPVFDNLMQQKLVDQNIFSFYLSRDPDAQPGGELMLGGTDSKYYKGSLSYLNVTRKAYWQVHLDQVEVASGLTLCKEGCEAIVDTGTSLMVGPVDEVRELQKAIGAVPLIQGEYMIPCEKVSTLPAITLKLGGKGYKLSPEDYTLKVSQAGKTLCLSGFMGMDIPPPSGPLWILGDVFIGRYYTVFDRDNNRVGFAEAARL

| IC50 [1] [µM] | IC50 [2] [µM] | IC50 [3] [µM] | SMILES |
| --- | --- | --- | --- |
| 396 | > 15.6 | 28.3 | Cc1cc(OC(F)F)cnc1C(=O)Nc1cc(F)c(Cl)c([C@]2(CF)N=C(N)O[C@H]3C[C@H]32)c1 [Example 157, N-(3-((1S,5R,6S)-3-amino-5-(fluoromethyl)-2-oxa-4-azabicyclo[4.1.0]hept-3-en-5-yl)-4-chloro-5-fluorophenyl)-5-(difluoromethoxy)-3-methylpicolinamide] |
| 230 | 0.0383 | 0.0403 | Cc1cc(OC(F)F)cnc1C(=O)Nc1cc(F)c(Cl)c([C@@]2(CF)N=C(N)O[C@@H]3C[C@@H]32)c1 [Example 158, N-(3-((1R,5S,6R)-3-amino-5-(fluoromethyl)-2-oxa-4-azabicyclo[4.1.0]hept-3-en-5-yl)-4-chloro-5-fluorophenyl)-5-(difluoromethoxy)-3-methylpicolinamide] |
| 2000 | 0.0808 | 0.0291 | NC1=N[C@@](c2cc(NC(=O)c3cnc(OCC(F)(F)F)cn3)ccc2F)(C(F)F)[C@H]2C[C@H]2O1 [Example 160, N-(3-((1R,5S,6R)-3-amino-5-(difluoromethyl)-2-oxa-4-azabicyclo[4.1.0]hept-3-en-5-yl)-4-fluorophenyl)-5-(2,2,2-trifluoroethoxy)pyrazine-2-carboxamide] |
| 295 | > 15.6 | > 40 | CC(C)n1cc(Cl)c(C(=O)Nc2ccc(F)c([C@@]3(C(F)F)N=C(N)O[C@@H]4C[C@@H]43)c2)n1 [Example 161, N-(3-((1R,5S,6R)-3-amino-5-(difluoromethyl)-2-oxa-4-azabicyclo[4.1.0]hept-3-en-5-yl)-4-fluorophenyl)-4-chloro-1-isopropyl-1H-pyrazole-3-carboxamide] |
| 950 | 0.0109 | 0.0232 | NC1=N[C@](CF)(c2cc(NC(=O)c3nn(C(F)F)cc3Cl)ccc2F)[C@H]2C[C@H]2O1 [Example 164, N-(3-((1R,5S,6R)-3-amino-5-(fluoromethyl)-2-oxa-4-azabicyclo[4.1.0]hept-3-en-5-yl)-4-fluorophenyl)-4-chloro-1-(difluoromethyl)-1H-pyrazole-3-carboxamide] |
| 383 | 0.0606 | 0.0192 | NC1=N[C@@](c2cc(NC(=O)c3cnc(OCc4nccs4)cn3)ccc2F)(C(F)F)[C@H]2C[C@H]2O1 [Example 165, N-(3-((1R,5S,6R)-3-amino-5-(difluoromethyl)-2-oxa-4-azabicyclo[4.1.0]hept-3-en-5-yl)-4-fluorophenyl)-5-(thiazol-2-ylmethoxy)pyrazine-2-carboxamide] |
| 373 | 0.103 | 0.0613 | Cc1nc(C(=O)Nc2ccc(F)c([C@@]3(C(F)F)N=C(N)O[C@@H]4C[C@@H]43)c2)co1 [Example 166, N-(3-((1R,5S,6R)-3-amino-5-(difluoromethyl)-2-oxa-4-azabicyclo[4.1.0]hept-3-en-5-yl)-4-fluorophenyl)-2-methyloxazole-4-carboxamide] |
| 582 | 0.0418 | 0.0366 | NC1=N[C@@](c2cc(NC(=O)c3cnc(OCc4cscn4)cn3)ccc2F)(C(F)F)[C@H]2C[C@H]2O1 [Example 169, N-(3-((1R,5S,6R)-3-amino-5-(difluoromethyl)-2-oxa-4-azabicyclo[4.1.0]hept-3-en-5-yl)-4-fluorophenyl)-5-(thiazol-4-ylmethoxy)pyrazine-2-carboxamide] |
| 445 | 0.56 | 0.0867 | NC1=N[C@@](c2cc(NC(=O)c3cnc(OCc4cncs4)cn3)ccc2F)(C(F)F)[C@H]2C[C@H]2O1 [Example 170, N-(3-((1R,5S,6R)-3-amino-5-(difluoromethyl)-2-oxa-4-azabicyclo[4.1.0]hept-3-en-5-yl)-4-fluorophenyl)-5-(thiazol-5-ylmethoxy)pyrazine-2-carboxamide] |
| 846 | 0.323 | 0.0811 | NC1=N[C@@](c2cc(NC(=O)c3cnc(OCc4cnco4)cn3)ccc2F)(C(F)F)[C@H]2C[C@H]2O1 [Example 171, N-(3-((1R,5S,6R)-3-amino-5-(difluoromethyl)-2-oxa-4-azabicyclo[4.1.0]hept-3-en-5-yl)-4-fluorophenyl)-5-(oxazol-5-ylmethoxy)pyrazine-2-carboxamide] |
| 360 | 0.446 | 0.0824 | NC1=N[C@@](c2cc(NC(=O)c3ccc(OCc4nccs4)cn3)ccc2F)(C(F)F)[C@H]2C[C@H]2O1 [Example 172, N-(3-((1R,5S,6R)-3-amino-5-(difluoromethyl)-2-oxa-4-azabicyclo[4.1.0]hept-3-en-5-yl)-4-fluorophenyl)-5-(thiazol-2-ylmethoxy) picolinamide] |
| 1010 | 0.0789 | 0.0366 | NC1=N[C@@](c2cc(NC(=O)c3ccc(OCc4ncco4)cn3)ccc2F)(C(F)F)[C@H]2C[C@H]2O1 [Example 173, N-(3-((1R,5S,6R)-3-amino-5-(difluoromethyl)-2-oxa-4-azabicyclo[4.1.0]hept-3-en-5-yl)-4-fluorophenyl)-5-(oxazol-2-ylmethoxy) picolinamide] |
| 835 | 0.156 | 0.191 | Cc1csc(C(=O)Nc2ccc(F)c([C@@]3(C(F)F)N=C(N)O[C@@H]4C[C@@H]43)c2)c1 [Example 176, N-(3-((1R,5S,6R)-3-amino-5-(difluoromethyl)-2-oxa-4-azabicyclo[4.1.0]hept-3-en-5-yl)-4-fluorophenyl)-4-methylthiophene-2-carboxamide] |
| 762 | 0.373 | 0.185 | NC1=N[C@@](c2cc(NC(=O)c3cc(Cl)cs3)ccc2F)(C(F)F)[C@H]2C[C@H]2O1 [Example 177, N-(3-((1R,5S,6R)-3-amino-5-(difluoromethyl)-2-oxa-4-azabicyclo[4.1.0]hept-3-en-5-yl)-4-fluorophenyl)-4-chlorothiophene-2-carboxamide] |
| 534 | 1.56 | 1.07 | N#Cc1csc(C(=O)Nc2ccc(F)c([C@@]3(C(F)F)N=C(N)O[C@@H]4C[C@@H]43)c2)c1 [Example 178, N-(3-((1R,5S,6R)-3-amino-5-(difluoromethyl)-2-oxa-4-azabicyclo[4.1.0]hept-3-en-5-yl)-4-fluorophenyl)-4-cyanothiophene-2-carboxamide] |
| 474 | 0.661 | 0.871 | NC1=N[C@@](c2cc(NC(=O)c3ccc(Cl)s3)ccc2F)(C(F)F)[C@H]2C[C@H]2O1 [Example 179, N-(3-((1R,5S,6R)-3-amino-5-(difluoromethyl)-2-oxa-4-azabicyclo[4.1.0]hept-3-en-5-yl)-4-fluorophenyl)-5-chlorothiophene-2-carboxamide] |
| > 1.65 | 0.0449 | 0.0918 | NC1=N[C@@](c2cc(NC(=O)c3ccc(OCF)cn3)ccc2F)(C(F)F)[C@H]2C[C@H]2O1 [Example 180, N-(3-((1R,5S,6R)-3-amino-5-(difluoromethyl)-2-oxa-4-azabicyclo[4.1.0]hept-3-en-5-yl)-4-fluorophenyl)-5-(fluoromethoxy) picolinamide] |
| 580 | 1.14 | 1.4 | NC1=N[C@@](c2cc(NC(=O)c3csc(Cl)c3)ccc2F)(C(F)F)[C@H]2C[C@H]2O1 [Example 181, N-(3-((1R,5S,6R)-3-amino-5-(difluoromethyl)-2-oxa-4-azabicyclo[4.1.0]hept-3-en-5-yl)-4-fluorophenyl)-5-chlorothiophene-3-carboxamide] |
